Patent publication US7223773B2, “4-oxoquinolizine antibacterial agent having 2-pyridone skeleton as partial structure” (Salo Pharmaceutical Co., Ltd., priority 2001, dated 2007)
In brackets after ≈: the same amount, converted by molar mass.

How the values were obtained:
Format in all cases: cell-based
[1] = test system: Bacteroides fragilis GAI 0675; assay: in vitro antibacterial activity on anaerobic bacteria (MIC); settings: GAI0675; Bacteroides fragilis GAI 0675, anaerobic; read-out: Antimicrobial spectrum MIC
Description: (§1) The in vitro antibacterial activities of the compounds provided by the present invention were tested by a standard method of Chemotherapy Society of Japan, i.e. an agar plate dilution method disclosed in CHEMOTHERAPY Vol. 29, pages 76–79, 1981, and the activities of them on anaerobic bacteria were tested by a method disclosed in CHEMOTHERAPY Vol. 27, 559–590, 1979. The results were shown in terms of the minimum inhibition concentration (MIC, μg/ml) for the growth of the bacteria.

[2] = test system: Bacteroides thetaiotaomicron ATCC 29741; assay: as above; settings: ATCC29741; Bacteroides thetaiotaomicron ATCC 29741, anaerobic; read-out: Antimicrobial spectrum MIC
Description: as §1

[3] = test system: Propionibacterium acnes JCM 6425; assay: as above; settings: Cutibacterium acnes, JCM6425; Propionibacterium acnes JCM 6425, anaerobic; read-out: Antimicrobial spectrum MIC
Description: as §1

[4] = test system: Enterococcus faecalis RIMD 3116001; assay: in vitro antibacterial activity, agar plate dilution method (MIC); settings: RIMD3116001, read-out: Antimicrobial spectrum MIC
Description: as §1

[5] = test system: Staphylococcus aureus IID 803(Smith); assay: as above; settings: IID803, read-out: Antimicrobial spectrum MIC
Description: as §1

[6] = test system: Micrococcus luteus KI 3122; assay: as above; settings: KI3122, read-out: Antimicrobial spectrum MIC
Description: as §1

[7] = test system: Staphylococcus aureus Clin-211(MRSA); assay: as above; settings: read-out: Antimicrobial spectrum MIC
Description: as §1

[8] = test system: Pseudomonas aeruginosa CSJ 1853; assay: as above; settings: CSJ1853, read-out: Antimicrobial spectrum MIC
Description: as §1

[9] = test system: Klebsiella pneumoniae IID 865; assay: as above; settings: IID865, read-out: Antimicrobial spectrum MIC
Description: as §1

[10] = test system: Escherichia coli IFO 12734; assay: as above; settings: IFO12734, read-out: Antimicrobial spectrum MIC
Description: as §1

[11] = test system: Staphylococcus aureus JCM 2874; assay: as above; settings: JCM2874, read-out: Antimicrobial spectrum MIC
Description: as §1

[12] = test system: Bacillus subtilis JCM 2499; assay: as above; settings: JCM2499, read-out: Antimicrobial spectrum MIC
Description: as §1

[13] = test system: Haemophilus influenzae IID 984; assay: as above; settings: IID984, read-out: Antimicrobial spectrum MIC
Description: as §1

[14] = test system: Streptococcus pneumoniae IID 553; assay: as above; settings: IID553, read-out: Antimicrobial spectrum MIC
Description: as §1

[15] = test system: Enterococcus faecalis CSJ 1212; assay: as above; settings: CSJ1212, read-out: Antimicrobial spectrum MIC
Description: as §1

[16] = test system: Branhamella catarrhalis IID 5233; assay: as above; settings: Moraxella catarrhalis, IID5233, read-out: Antimicrobial spectrum MIC
Description: as §1

[17] = test system: Staphylococcus epidermidis IFO 12993; assay: as above; settings: IFO12993, read-out: Antimicrobial spectrum MIC
Description: as §1

[18] = test system: Staphylococcus aureus IFO 13276; assay: as above; settings: IFO13276, read-out: Antimicrobial spectrum MIC
Description: as §1

| SMILES | MIC [1] | MIC [2] | MIC [3] | MIC [4] | MIC [5] | MIC [6] | MIC [7] | MIC [8] | MIC [9] | MIC [10] | MIC [11] | MIC [12] | MIC [13] | MIC [14] | MIC [15] | MIC [16] | MIC [17] | MIC [18] |
| --- | --- | --- | --- | --- | --- | --- | --- | --- | --- | --- | --- | --- | --- | --- | --- | --- | --- | --- |
| Cc1c(-c2ccc(CN)cc2)ccn2c(=O)c(C(=O)O)cc(C3CC3)c12 [Example 24, 8-(4-aminomethylphenyl)-1-cyclopropyl-9-methyl-4-oxo-4H-quinolizine-3-carboxylic acid] | 0.25 µg/mL (≈ 0.718 µM) | 0.5 µg/mL (≈ 1.44 µM) | 0.125 µg/mL (≈ 0.359 µM) | 0.25 µg/mL (≈ 0.718 µM) | 0.031 µg/mL (≈ 0.089 µM) | 0.5 µg/mL (≈ 1.44 µM) | 0.5 µg/mL (≈ 1.44 µM) | 0.5 µg/mL (≈ 1.44 µM) | 0.008 µg/mL (≈ 0.023 µM) | 0.063 µg/mL (≈ 0.181 µM) | 0.031 µg/mL (≈ 0.089 µM) | 0.016 µg/mL (≈ 0.0459 µM) | 0.016 µg/mL (≈ 0.0459 µM) | 0.125 µg/mL (≈ 0.359 µM) | 0.25 µg/mL (≈ 0.718 µM) | 0.063 µg/mL (≈ 0.181 µM) | 0.063 µg/mL (≈ 0.181 µM) | 0.031 µg/mL (≈ 0.089 µM) |
| Cc1c(-c2cccc(N)c2)ccn2c(=O)c(C(=O)O)cc(C3CC3)c12 [Example 26, 8-(3-aminophenyl)-1-cyclopropyl-9-methyl-4-oxo-4H-quinolizine-3-carboxylic acid] | 0.125 µg/mL (≈ 0.374 µM) | 0.25 µg/mL (≈ 0.748 µM) | 0.063 µg/mL (≈ 0.188 µM) | 0.25 µg/mL (≈ 0.748 µM) | 0.008 µg/mL (≈ 0.0239 µM) | 0.125 µg/mL (≈ 0.374 µM) | 0.125 µg/mL (≈ 0.374 µM) | 0.25 µg/mL (≈ 0.748 µM) | 0.008 µg/mL (≈ 0.0239 µM) | 0.125 µg/mL (≈ 0.374 µM) | 0.008 µg/mL (≈ 0.0239 µM) | ≤ 0.004 µg/mL | 0.016 µg/mL (≈ 0.0479 µM) | 0.25 µg/mL (≈ 0.748 µM) | 0.125 µg/mL (≈ 0.374 µM) | 0.016 µg/mL (≈ 0.0479 µM) | 0.016 µg/mL (≈ 0.0479 µM) | 0.008 µg/mL (≈ 0.0239 µM) |
| Cc1c(-c2ccc(N)cc2)ccn2c(=O)c(C(=O)O)cc(C3CC3)c12 [Example 27, 8-(4-Aminophenyl)-1-cyclopropyl-9-methyl-4-oxo-4H-quinolizine-3-carboxylic acid] | 0.031 µg/mL (≈ 0.0927 µM) | 0.125 µg/mL (≈ 0.374 µM) | 0.031 µg/mL (≈ 0.0927 µM) | 0.063 µg/mL (≈ 0.188 µM) | ≤ 0.004 µg/mL | 0.063 µg/mL (≈ 0.188 µM) | 0.031 µg/mL (≈ 0.0927 µM) | 0.25 µg/mL (≈ 0.748 µM) | ≤ 0.004 µg/mL | 0.063 µg/mL (≈ 0.188 µM) | ≤ 0.004 µg/mL | ≤ 0.004 µg/mL | 0.008 µg/mL (≈ 0.0239 µM) | 0.125 µg/mL (≈ 0.374 µM) | 0.031 µg/mL (≈ 0.0927 µM) | ≤ 0.004 µg/mL | 0.008 µg/mL (≈ 0.0239 µM) | ≤ 0.004 µg/mL |
| CC(=O)c1ccc(-c2ccn3c(=O)c(C(=O)O)cc(C4CC4)c3c2C)cc1 [Example 28, 8-(4-Acetylphenyl)-1-cyclopropyl-9-methyl-4-oxo-4H-quinolizine-3-carboxylic acid] | 0.125 µg/mL (≈ 0.346 µM) | 0.25 µg/mL (≈ 0.692 µM) | – | 0.25 µg/mL (≈ 0.692 µM) | 0.008 µg/mL (≈ 0.0221 µM) | 0.25 µg/mL (≈ 0.692 µM) | 0.125 µg/mL (≈ 0.346 µM) | 2 µg/mL (≈ 5.53 µM) | 0.031 µg/mL (≈ 0.0858 µM) | 0.25 µg/mL (≈ 0.692 µM) | 0.008 µg/mL (≈ 0.0221 µM) | ≤ 0.004 µg/mL | 0.25 µg/mL (≈ 0.692 µM) | 0.25 µg/mL (≈ 0.692 µM) | 0.125 µg/mL (≈ 0.346 µM) | 0.031 µg/mL (≈ 0.0858 µM) | 0.031 µg/mL (≈ 0.0858 µM) | 0.008 µg/mL (≈ 0.0221 µM) |
| Cc1ccc(-c2ccn3c(=O)c(C(=O)O)cc(C4CC4)c3c2C)cc1 [Example 31, 1-Cyclopropyl-9-methyl-4-oxo-8-p-tolyl-4H-quinolizine-3-carboxylic acid] | 0.25 µg/mL (≈ 0.75 µM) | 1 µg/mL (≈ 3 µM) | 0.25 µg/mL (≈ 0.75 µM) | 0.5 µg/mL (≈ 1.5 µM) | 0.008 µg/mL (≈ 0.024 µM) | 0.125 µg/mL (≈ 0.375 µM) | 0.125 µg/mL (≈ 0.375 µM) | 0.5 µg/mL (≈ 1.5 µM) | 0.031 µg/mL (≈ 0.093 µM) | 0.125 µg/mL (≈ 0.375 µM) | 0.008 µg/mL (≈ 0.024 µM) | ≤ 0.004 µg/mL | 0.125 µg/mL (≈ 0.375 µM) | 0.5 µg/mL (≈ 1.5 µM) | 0.25 µg/mL (≈ 0.75 µM) | 0.031 µg/mL (≈ 0.093 µM) | 0.016 µg/mL (≈ 0.048 µM) | 0.008 µg/mL (≈ 0.024 µM) |
| CC(=NO)c1ccc(-c2ccn3c(=O)c(C(=O)O)cc(C4CC4)c3c2C)cc1 [Example 38, 1-Cyclopropyl-8-[4-(1-hydroxyiminoethyl)phenyl]-9-methyl-4-oxo-4H-quinolizine-3-carboxylic acid] | 0.063 µg/mL (≈ 0.167 µM) | 0.25 µg/mL (≈ 0.664 µM) | – | 0.125 µg/mL (≈ 0.332 µM) | ≤ 0.004 µg/mL | 0.125 µg/mL (≈ 0.332 µM) | 0.063 µg/mL (≈ 0.167 µM) | 2 µg/mL (≈ 5.31 µM) | 0.031 µg/mL (≈ 0.0824 µM) | 0.125 µg/mL (≈ 0.332 µM) | ≤ 0.004 µg/mL | ≤ 0.004 µg/mL | 0.125 µg/mL (≈ 0.332 µM) | 0.125 µg/mL (≈ 0.332 µM) | 0.125 µg/mL (≈ 0.332 µM) | 0.016 µg/mL (≈ 0.0425 µM) | 0.016 µg/mL (≈ 0.0425 µM) | 0.008 µg/mL (≈ 0.0213 µM) |
| Cc1c(-c2ccc(N)c(F)c2)ccn2c(=O)c(C(=O)O)cc(C3CC3)c12 [Example 97, 8-(4-amino-3-fluorophenyl)-1-cyclopropyl-9-methyl-4-oxo-4H-quinolizine-3-carboxylic acid] | 0.031 µg/mL (≈ 0.088 µM) | 0.125 µg/mL (≈ 0.355 µM) | 0.031 µg/mL (≈ 0.088 µM) | 0.25 µg/mL (≈ 0.709 µM) | ≤ 0.004 µg/mL | 0.125 µg/mL (≈ 0.355 µM) | 0.063 µg/mL (≈ 0.179 µM) | 0.25 µg/mL (≈ 0.709 µM) | 0.031 µg/mL (≈ 0.088 µM) | 0.063 µg/mL (≈ 0.179 µM) | ≤ 0.004 µg/mL | – | 0.031 µg/mL (≈ 0.088 µM) | 0.25 µg/mL (≈ 0.709 µM) | 0.125 µg/mL (≈ 0.355 µM) | 0.031 µg/mL (≈ 0.088 µM) | 0.016 µg/mL (≈ 0.0454 µM) | 0.016 µg/mL (≈ 0.0454 µM) |
| CCOC(=O)c1cc(C2CC2)c2c(C)c(-c3cc(F)c(CN)s3)ccn2c1=O [Example 111, Ethyl 8-(5-aminomethyl-4-fluorothiophen-2-yl)-1-cyclopropyl-9-methyl-4-oxo-4H-quinolizine-3-carboxylate] | 0.25 µg/mL (≈ 0.624 µM) | 0.5 µg/mL (≈ 1.25 µM) | 0.125 µg/mL (≈ 0.312 µM) | 0.125 µg/mL (≈ 0.312 µM) | 0.016 µg/mL (≈ 0.04 µM) | 0.25 µg/mL (≈ 0.624 µM) | 0.25 µg/mL (≈ 0.624 µM) | 0.25 µg/mL (≈ 0.624 µM) | 0.008 µg/mL (≈ 0.02 µM) | 0.063 µg/mL (≈ 0.157 µM) | 0.031 µg/mL (≈ 0.0774 µM) | – | 0.008 µg/mL (≈ 0.02 µM) | 0.125 µg/mL (≈ 0.312 µM) | 0.063 µg/mL (≈ 0.157 µM) | 0.031 µg/mL (≈ 0.0774 µM) | 0.031 µg/mL (≈ 0.0774 µM) | 0.016 µg/mL (≈ 0.04 µM) |
| Cc1c(-c2ccc(CN)o2)ccn2c(=O)c(C(=O)O)cc(C3CC3)c12 [Example 113, 8-(5-Aminomethylfuran-2-yl)-1-cyclopropyl-9-methyl-4-oxo-4H-quinolizine-3-carboxylic acid] | 1 µg/mL (≈ 2.96 µM) | 2 µg/mL (≈ 5.91 µM) | – | 0.5 µg/mL (≈ 1.48 µM) | – | 0.25 µg/mL (≈ 0.739 µM) | – | 1 µg/mL (≈ 2.96 µM) | 0.008 µg/mL (≈ 0.0236 µM) | 0.063 µg/mL (≈ 0.186 µM) | 0.063 µg/mL (≈ 0.186 µM) | 0.016 µg/mL (≈ 0.0473 µM) | 0.031 µg/mL (≈ 0.0916 µM) | 0.5 µg/mL (≈ 1.48 µM) | 0.5 µg/mL (≈ 1.48 µM) | 0.125 µg/mL (≈ 0.369 µM) | – | 0.031 µg/mL (≈ 0.0916 µM) |
